Earlier results on one molecule are cited in patent US7419996B2, “Parenteral and oral formulations of benzimidazoles” (The University of Houston, priority 2003, dated 2008).

The series concerns rodents.

Where two headings read alike, the source gives them in different places.

`C[S+](C)[O-]` [DMSO, dimethylsulfoxide]: the LD50 runs as follows: (intravenously) 3.1 gm/kg; (orally) 7.92 gm/kg.
